# Square brackets hold non-standard residues; d marks the D form. Peptide text beside a SMILES is read from it. ξ: configuration not given here. ξαMeGly(pent-4-enyl) = C=CCCCC(C)(N)C(=O)O
# Assays:
# MRSA 113 = assay type: cell-based, Staphylococcus aureus; conditions: 113, 18 h
# Method in brief: (§1)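 Each strain is diluted to 1 × 10^6 CFU/mL and incubated with 8–128 μg/mL peptide at 37 °C for 18 h. No obvious growth defines the MIC, repeated to three matching results; a 450-mM NaCl condition probes salt stability.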
# MRSA 23 = assay type: cell-based, Staphylococcus aureus; conditions: 23, 18 h
# Method in brief: as §1
# MRSA 52 = assay type: cell-based, Staphylococcus aureus; conditions: 52, 18 h
# Method in brief: as §1
# MRSA 71 = assay type: cell-based, Staphylococcus aureus; conditions: 71, 18 h
# Method in brief: as §1
# MRSA 75 = assay type: cell-based, Staphylococcus aureus; conditions: 75, 18 h
# Method in brief: as §1
# MRSA 51 = assay type: cell-based, Staphylococcus aureus; conditions: 51, 18 h
# Method in brief: as §1
# S. aureus 794 = assay type: cell-based, Staphylococcus aureus; conditions: 794, 18 h
# Method in brief: as §1
# MRSA ATCC 33591 = assay type: cell-based, Staphylococcus aureus; conditions: ATCC 33591, 18 h
# Method in brief: as §1
# MRSA 48 = assay type: cell-based, Staphylococcus aureus; conditions: 48, 18 h
# Method in brief: as §1
# S. aureus ATCC 25923 = assay type: cell-based, Staphylococcus aureus; conditions: ATCC 25923, 18 h
# Method in brief: as §1
# S. aureus 725 = assay type: cell-based, Staphylococcus aureus; conditions: 725, 18 h
# Method in brief: as §1
# MRSA 74 = assay type: cell-based, Staphylococcus aureus; conditions: 74, 18 h
# Method in brief: as §1
# MRSA 54 = assay type: cell-based, Staphylococcus aureus; conditions: 54, 18 h
# Method in brief: as §1
# A. baumannii ATCC 19606 [1] = assay type: cell-based, Acinetobacter baumannii; conditions: ATCC 19606, 24 h
# Protocol: The antibiofilm activity of the peptides was determined according to the previously described methods. Strains (final concentration of 5 × 10^5 CFU/mL) and peptides (4–128 μg/mL) were incubated for 24 h at 37 °C. Biofilm cells were cleaned with 0.01-M PBS and fixed with methanol. Crystal violet (0.1%, HopeBiol, Qingdao, China) was used to stain the biofilm cells for 10 min. After washing with water, 95% ethanol was finally added, and the optical density at 595 nm was measured with a microplate reader (Flex Station 3; Laguna Hills, CA, USA).
# A. baumannii ATCC 19606 [2] = assay type: cell-based, Acinetobacter baumannii; conditions: ATCC 19606, 18 h
# Method in brief: as §1
# A. baumannii 91810 = assay type: cell-based, Acinetobacter baumannii; conditions: 91810, 18 h
# Method in brief: as §1
# A. baumannii 9236 = assay type: cell-based, Acinetobacter baumannii; conditions: 9236, 18 h
# Method in brief: as §1
# A. baumannii 9331 = assay type: cell-based, Acinetobacter baumannii; conditions: 9331, 18 h
# Method in brief: as §1
# A. baumannii 5444 = assay type: cell-based, Acinetobacter baumannii; conditions: 5444, 18 h
# Method in brief: as §1
# A. baumannii 91199 = assay type: cell-based, Acinetobacter baumannii; conditions: 91199, 18 h
# Method in brief: as §1
# A. baumannii 92359 = assay type: cell-based, Acinetobacter baumannii; conditions: 92359, 18 h
# Method in brief: as §1
# A. baumannii 91105 = assay type: cell-based, Acinetobacter baumannii; conditions: 91105, 18 h
# Method in brief: as §1
# A. baumannii 91152 = assay type: cell-based, Acinetobacter baumannii; conditions: 91152, 18 h
# Method in brief: as §1
# A. baumannii 98110 = assay type: cell-based, Acinetobacter baumannii; conditions: 98110, 18 h
# Method in brief: as §1
# A. baumannii 9336 = assay type: cell-based, Acinetobacter baumannii; conditions: 9336, 18 h
# Method in brief: as §1
# A. baumannii 9896 = assay type: cell-based, Acinetobacter baumannii; conditions: 9896, 18 h
# Method in brief: as §1
# A. baumannii 822144 = assay type: cell-based, Acinetobacter baumannii; conditions: 822144, 18 h
# Method in brief: as §1
# A. baumannii 97830 = assay type: cell-based, Acinetobacter baumannii; conditions: 97830, 18 h
# Method in brief: as §1
# A. baumannii 91869 = assay type: cell-based, Acinetobacter baumannii; conditions: 91869, 18 h
# Method in brief: as §1
# A. baumannii 51243 = assay type: cell-based, Acinetobacter baumannii; conditions: 51243, 18 h
# Method in brief: as §1
# A. baumannii 9840 = assay type: cell-based, Acinetobacter baumannii; conditions: 9840, 18 h
# Method in brief: as §1
# A. baumannii 8309 = assay type: cell-based, Acinetobacter baumannii; conditions: 8309, 18 h
# Method in brief: as §1
# A. baumannii 9234 = assay type: cell-based, Acinetobacter baumannii; conditions: 9234, 18 h
# Method in brief: as §1
# A. baumannii 91944 = assay type: cell-based, Acinetobacter baumannii; conditions: 91944, 18 h
# Method in brief: as §1
# A. baumannii 9828 = assay type: cell-based, Acinetobacter baumannii; conditions: 9828, 18 h
# Method in brief: as §1
# P. aeruginosa ATCC 27853 = assay type: cell-based, Pseudomonas aeruginosa; conditions: ATCC 27853, 18 h
# Protocol: The minimum inhibitory concentration (MIC) of the Feleucin-K3 analogs was tested by the broth microdilution method. Sensitive bacteria and drug-resistant bacteria were diluted to 1 × 10^6 CFU/mL, according to the McFarland standards. Bacterial suspension and peptide solutions (8–128 μg/mL) were incubated at 37 °C for 18 h. The minimum concentration without obvious bacterial growth was the MIC of the peptides. The stability of the analogs in a physiological salt environment was also investigated. In brief, salt powder (450-mM NaCl) was dissolved in deionized water, and the following investigational steps were the same as those described before. The above steps were repeated several times, until the same value was obtained three times.
SMILES,"MIC, MRSA 113 (MRSA 113)","MIC, MRSA 23 (MRSA 23)","MIC, MRSA 52 (MRSA 52)","MIC, MRSA 71 (MRSA 71)","MIC, MRSA 75 (MRSA 75)","MIC, MRSA 51 (MRSA 51)","MIC, S. aureus 794 (S. aureus 794)","MIC, MRSA ATCC 33591 (MRSA ATCC 33591)","MIC, MRSA 48 (MRSA 48)","MIC, S. aureus ATCC 25923 (S. aureus ATCC 25923)","MIC, S. aureus 725 (S. aureus 725)","MIC, MRSA 74 (MRSA 74)","MIC, MRSA 54 (MRSA 54)","MBIC50, A. baumannii ATCC 19606 (A. baumannii ATCC 19606 [1])","MBIC90, A. baumannii ATCC 19606 (A. baumannii ATCC 19606 [1])","MIC, A. baumannii ATCC 19606 (A. baumannii ATCC 19606 [2])","MIC, A. baumannii 91810 (A. baumannii 91810)","MIC, A. baumannii 9236 (A. baumannii 9236)","MIC, A. baumannii 9331 (A. baumannii 9331)","MIC, A. baumannii 5444 (A. baumannii 5444)",also measured
C=CCCCC(C)(N)C(=O)N[C@@H](CC(C)C)C(=O)N[C@@H](CCCCN)C(=O)N[C@@H](CC(C)C)C(=O)N[C@@H](CC(C)C)C(=O)N[C@@H](CCCCN)C(=O)N[C@@H](CCCCN)C(=O)N[C@@H](CC(C)C)C(=O)N[C@@H](CC(C)C)C(N)=O (some centres unmarked) [Feleucin-K65] (H-[ξαMeGly(pent-4-enyl)]LKLLKKLL-NH2),8 µg/mL,4 µg/mL,4 µg/mL,4 µg/mL,4 µg/mL,8 µg/mL,8 µg/mL,4 µg/mL,4 µg/mL,8 µg/mL,4 µg/mL,4 µg/mL,4 µg/mL,8 µg/mL,8 µg/mL,4 µg/mL,4 µg/mL,4 µg/mL,8 µg/mL,4 µg/mL,"MIC, A. baumannii 91199 (A. baumannii 91199): 4 µg/mL; MIC, A. baumannii 92359 (A. baumannii 92359): 4 µg/mL; MIC, A. baumannii 91105 (A. baumannii 91105): 4 µg/mL; MIC, A. baumannii 91152 (A. baumannii 91152): 4 µg/mL; MIC, A. baumannii 98110 (A. baumannii 98110): 4 µg/mL; MIC, A. baumannii 9336 (A. baumannii 9336): 4 µg/mL; MIC, A. baumannii 9896 (A. baumannii 9896): 4 µg/mL; MIC, A. baumannii 822144 (A. baumannii 822144): 8 µg/mL; MIC, A. baumannii 97830 (A. baumannii 97830): 4 µg/mL; MIC, A. baumannii 91869 (A. baumannii 91869): 4 µg/mL; MIC, A. baumannii 51243 (A. baumannii 51243): 4 µg/mL; MIC, A. baumannii 9840 (A. baumannii 9840): 4 µg/mL; MIC, A. baumannii 8309 (A. baumannii 8309): 4 µg/mL; MIC, A. baumannii 9234 (A. baumannii 9234): 4 µg/mL; MIC, A. baumannii 91944 (A. baumannii 91944): 4 µg/mL; MIC, A. baumannii 9828 (A. baumannii 9828): 4 µg/mL; MIC, P. aeruginosa ATCC 27853 (P. aeruginosa ATCC 27853): 8 µg/mL"
C=CCCCC(C)(NC(=O)[C@H](CC(C)C)NC(=O)[C@H](CCCCN)NC(=O)[C@H](CCCCN)NC(=O)[C@H](CC(C)C)NC(=O)[C@H](CC(C)C)NC(=O)[C@H](CCCCN)NC(=O)[C@H](CC(C)C)NC(=O)[C@@H](N)Cc1ccccc1)C(N)=O (some centres unmarked) [Feleucin-K70] (H-FLKLLKKL[ξαMeGly(pent-4-enyl)]-NH2),8 µg/mL,8 µg/mL,8 µg/mL,8 µg/mL,8 µg/mL,8 µg/mL,8 µg/mL,8 µg/mL,8 µg/mL,8 µg/mL,8 µg/mL,8 µg/mL,8 µg/mL,8 µg/mL,16 µg/mL,8 µg/mL,8 µg/mL,8 µg/mL,16 µg/mL,8 µg/mL,"MIC, A. baumannii 91199 (A. baumannii 91199): 8 µg/mL; MIC, A. baumannii 92359 (A. baumannii 92359): 8 µg/mL; MIC, A. baumannii 91105 (A. baumannii 91105): 4 µg/mL; MIC, A. baumannii 91152 (A. baumannii 91152): 8 µg/mL; MIC, A. baumannii 98110 (A. baumannii 98110): 8 µg/mL; MIC, A. baumannii 9336 (A. baumannii 9336): 8 µg/mL; MIC, A. baumannii 9896 (A. baumannii 9896): 4 µg/mL; MIC, A. baumannii 822144 (A. baumannii 822144): 8 µg/mL; MIC, A. baumannii 97830 (A. baumannii 97830): 8 µg/mL; MIC, A. baumannii 91869 (A. baumannii 91869): 8 µg/mL; MIC, A. baumannii 51243 (A. baumannii 51243): 8 µg/mL; MIC, A. baumannii 9840 (A. baumannii 9840): 8 µg/mL; MIC, A. baumannii 8309 (A. baumannii 8309): 8 µg/mL; MIC, A. baumannii 9234 (A. baumannii 9234): 8 µg/mL; MIC, A. baumannii 91944 (A. baumannii 91944): 8 µg/mL; MIC, A. baumannii 9828 (A. baumannii 9828): 8 µg/mL; MIC, P. aeruginosa ATCC 27853 (P. aeruginosa ATCC 27853): 8 µg/mL"

# Source: publication PMC8160793, “Potent Antimicrobial and Antibiofilm Activities of Feleucin-K3 Analogs Modified by α-(4-Pentenyl)-Ala against Multidrug-Resistant Bacteria” (Biomolecules, 2021)
